Test results from patent US7476764B2, “Phenylcarboxyamides as beta-secretase inhibitors” (Bristol-Myers Squibb Company, priority 2005, dated 2009).
Counter-ions that a name gives are not always drawn.

target: T1, BACE1 enzyme (Homo sapiens, UniProt P56817); assay: Radioligand displacement assay with a radiolabeled BACE inhibitor on HEK293-9B.A1 cell homogenate; type: binding; settings: displacement of 1 nM tritiated radioligand, HEK293-9B.A1 homogenate, pH 5.0, 1.5 hr at 25° C.; read-out: Activity Rating (activity based on IC50 values)
T1 construct: The HEK293-9B.A1 cell line, which overexpresses the BACE1 enzyme, was derived from HEK293 cells; endogenous in cells; washed 48,000 x g pellet of the cell homogenate
Protocol: Radioligand displacement assays with a radiolabeled BACE inhibitor (WO 2004 013098, compound 3, where the methoxy group is substituted for C(^3H)3) were carried out using standard methods (Keen, M. (1999) in Receptor Binding Techniques (Walker, J. M. ed) p. 106 Humana Press, Totowa, N.J.). The HEK293-9B.A1 cell line, which overexpresses the BACE1 enzyme, was derived from HEK293 cells (Simmons, N. L. (1990) A cultured human renal epitheloid cell line responsive to vasoactive intestinal peptide. Exp. Physiol. 75:309-19.) by RAGE™ (Harrington, J. J. et al. (2001) Creation of genome-wide protein expression libraries using random activation of gene expression. Nat. Biotechnol. 19:440-5; U.S. Pat. Nos. 6,410,266 and 6,361,972). T225 flask cultures of HEK293-9B.A1 were grown to 80% confluency in DMEM supplemented with 2 mM L-glutamine, 10 μg/ml penicillin, 10 μg/ml streptomycin, 3 μg/ml puromycin, 100 nM methotrexate, and 10% fetal bovine serum (Invitrogen, Carlsbad, Calif.), harvested, and resuspended at 2×10^8 cells per 10 ml of lysis buffer consisting of 50 mM HEPES pH 7.0 containing a protease inhibitor cocktail of AEBSF 104 μM, aprotinin 80 nM, leupeptin 2 μM, bestatin 4 μM, pepstatin A 1.5 μM, and E-64 1.4 μM (0.1% of protease inhibitor cocktail P8340, Sigma-Aldrich, St. Louis, Mo.) at 4° C. The resuspended cells were homogenized using a Polytron (Brinkman, Westbury, N.Y.) at setting 6 for 10 sec., then centrifuged at 48,000×g for 10 min. The resulting pellet was washed by repeating the resuspension, homogenization and centrifugation steps. The final pellet was resuspended in buffer at 4° C. to yield a total protein concentration of 5 mg/ml, then aliquots were frozen in liquid nitrogen for further storage at −70° C. Immediately before carrying out a binding assay, an aliquot of cell homogenate was thawed and diluted to a concentration of 100 μg/ml in assay buffer consisting of 50 mM HEPES pH 5.0 and 0.1% CHAPSO. Assays were initiated in polypropylene 96-well plates (Costar, Cambridge, Mass.) by the addition of 200 μl of cell homogenate to 50 μl of assay buffer containing 1 nM radioligand (WO 2004 013098, compound 3, where the methoxy group is substituted for C(^3H)3: 80 Ci/mMol) and various concentrations of unlabelled compounds, and incubated for 1.5 hr. at 25° C. Separation of bound from free radioligand was by filtration on GFF glass fiber filters (Innotech Biosystems International, Lansing, Mich.) using an Innotech cell harvester.

T1 sequence (P56817 46-501): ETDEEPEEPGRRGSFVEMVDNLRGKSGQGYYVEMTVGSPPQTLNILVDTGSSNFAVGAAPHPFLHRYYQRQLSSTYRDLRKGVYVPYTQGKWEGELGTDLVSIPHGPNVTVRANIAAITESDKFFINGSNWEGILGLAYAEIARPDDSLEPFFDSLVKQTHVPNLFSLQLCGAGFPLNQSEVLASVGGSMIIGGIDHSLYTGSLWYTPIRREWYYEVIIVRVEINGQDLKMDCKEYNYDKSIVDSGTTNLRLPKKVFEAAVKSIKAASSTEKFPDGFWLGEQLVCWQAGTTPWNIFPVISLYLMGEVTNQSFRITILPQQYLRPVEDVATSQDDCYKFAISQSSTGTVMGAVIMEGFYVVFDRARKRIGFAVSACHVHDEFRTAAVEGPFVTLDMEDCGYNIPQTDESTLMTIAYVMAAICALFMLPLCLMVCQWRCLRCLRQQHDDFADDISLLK

Row | SMILES | IC50
1 | CCCN(C)C(=O)c1cc(C(=O)N[C@@H](Cc2cc(F)cc(F)c2)[C@H](O)CNCc2cccc(OC)c2)cc(/C(C)=N/OCc2ccccc2)c1 [Example 11, N^1-((2S,3R)-4-(3-methoxybenzylamino)-1-(3,5-difluorophenyl)-3-hydroxybutan-2-yl)-5-((E)-1-(benzyloxyimino)ethyl)-N^3-methyl-N^3-propylisophthalamide hydrochloride] | < 100 nM
2 | COc1cccc(CNC[C@@H](O)[C@H](Cc2cc(F)cc(F)c2)NC(=O)c2cc(/C(C)=N/OCC(C)C)cc(N3CCCCS3(=O)=O)c2)c1 [Example 27, N-[(1S,2R)-1-(3,5-difluoro-benzyl)-2-hydroxy-3-(3-methoxy-benzylamino)-propyl]-3-(1,1-dioxo-1λ^6-[1,2]thiazinan-2-yl)-5-{1-[(E)-isobutoxyimino]-ethyl}-benzamide TFA salt] | 100 to 1000 nM
3 | COc1cccc(CNC[C@@H](O)[C@H](Cc2cc(F)cc(F)c2)NC(=O)c2cc(/C(C)=N/OCC(C)C)cc(S(C)(=O)=O)c2)c1 [Example 20, N-((2S,3R)-4-(3-methoxybenzylamino)-1-(3,5-difluorophenyl)-3-hydroxybutan-2-yl)-3-((E)-1-(isobutoxyimino)ethyl)-5-(methylsulfonyl)benzamide TFA salt] | > 1000 nM
4 | COc1cccc(CNC[C@@H](O)[C@H](Cc2cc(F)cc(F)c2)NC(=O)c2cc(/C(C)=N/OCC(C)C)cc(N(C)S(C)(=O)=O)c2)c1 [Example 33, N-((2S,3R)-4-(3-methoxybenzylamino)-1-(3,5-difluorophenyl)-3-hydroxybutan-2-yl)-3-((E)-1-(isobutoxyimino)ethyl)-5-(N-methylmethan-2-ylsulfonamido)benzamide TFA salt] | 100 to 1000 nM
5 | COc1cccc(CNC[C@@H](O)[C@H](Cc2cc(F)cc(F)c2)NC(=O)c2cc(/C(C)=N/OCc3ccccc3)cc(N(c3ccccc3)S(C)(=O)=O)c2)c1 [Example 39, N-((2S,3R)-4-(3-methoxybenzylamino)-1-(3,5-difluorophenyl)-3-hydroxybutan-2-yl)-3-((E)-1-(benzyloxyimino)ethyl)-5-(N-phenylmethan-10-ylsulfonamido)benzamide] | < 100 nM
6 | COc1cccc(CNC[C@@H](O)[C@H](Cc2cc(F)cc(F)c2)NC(=O)c2cc(C(C)=O)cc(C(=O)N[C@H](C)c3ccccc3)c2)c1 [Example 44, N^1-((2S,3R)-4-(3-methoxybenzylamino)-1-(3,5-difluorophenyl)-3-hydroxybutan-2-yl)-5-acetyl-N^3-((R)-1-phenylethyl)isophthalamide TFA salt] | < 100 nM
7 | CCCN(C)C(=O)c1cc(C(=O)N[C@@H](Cc2cc(F)cc(F)c2)[C@H](O)CNCc2cccc(OC)c2)cc(C(C)O)c1 (stereo partly drawn) [Example 15, hydrochloride] | < 100 nM
8 | CCCO/N=C(\C)c1cc(C(=O)N[C@@H](Cc2cc(F)cc(F)c2)[C@H](O)CNCc2cccc(OC)c2)cc(N(c2ccccc2)S(C)(=O)=O)c1 [Example 43, N-((2S,3R)-4-(3-methoxybenzylamino)-1-(3,5-difluorophenyl)-3-hydroxybutan-2-yl)-3-(N-phenylmethan-10-ylsulfonamido)-5-((E)-1-(propoxyimino)ethyl)benzamide] | < 100 nM
9 | CCCO/N=C(\C)c1cc(C(=O)N[C@@H](Cc2cc(F)cc(F)c2)[C@H](O)CNCc2cccc(OC)c2)cc(N(C)S(C)(=O)=O)c1 [Example 32, N-((2S,3R)-4-(3-methoxybenzylamino)-1-(3,5-difluorophenyl)-3-hydroxybutan-2-yl)-3-((E)-1-(propoxyimino)ethyl)-5-(N-methylmethan-2-ylsulfonamido)benzamide TFA salt] | 100 to 1000 nM
10 | CCCN(CCC)C(=O)c1cc(C(=O)N[C@@H](Cc2cc(F)cc(F)c2)[C@H](O)CNCc2cccc(OC)c2)cc(/C(C)=N/OC)c1 [Example 3, N^1-((2S,3R)-4-(3-methoxybenzylamino)-1-(3,5-difluorophenyl)-3-hydroxybutan-2-yl)-5-((E)-1-(methoxyimino)ethyl)-N^3,N^3-dipropylisophthalamide TFA salt] | < 100 nM
11 | CCCN(CCC)C(=O)c1cc(C(=O)N[C@@H](Cc2cc(F)cc(F)c2)[C@H](O)CNCc2cccc(OC)c2)cc(/C(C)=N/OCC(C)C)c1 [Example 6, N^1-((2S,3R)-4-(3-methoxybenzylamino)-1-(3,5-difluorophenyl)-3-hydroxybutan-2-yl)-5-((E)-1-(isobutoxyimino)ethyl)-N^3,N^3-dipropylisophthalamide TFA salt] | < 100 nM
12 | C=CCO/N=C(\C)c1cc(C(=O)N[C@@H](Cc2cc(F)cc(F)c2)[C@H](O)CNCc2cccc(OC)c2)cc(C(=O)N(C)CCC)c1 [Example 13, N^1-((2S,3R)-4-(3-methoxybenzylamino)-1-(3,5-difluorophenyl)-3-hydroxybutan-2-yl)-5-((E)-1-(allyloxyimino)ethyl)-N^3-methyl-N^3-propylisophthalamide hydrochloride] | < 100 nM
13 | COc1cccc(CNC[C@@H](O)[C@H](Cc2cc(F)cc(F)c2)NC(=O)c2cc(C(C)O)cc(N3CCCCS3(=O)=O)c2)c1 (stereo partly drawn) [Example 23, N-[(1S,2R)-1-(3,5-difluoro-benzyl)-2-hydroxy-3-(3-methoxy-benzylamino)-propyl]-3-(1,1-dioxo-1λ^6-[1,2]thiazinan-2-yl)-5-(1-hydroxy-ethyl)-benzamide TFA salt] | < 100 nM
14 | COc1cccc(CNC[C@@H](O)[C@H](Cc2cc(F)cc(F)c2)NC(=O)c2cc(/C(C)=N/OCc3ccccc3)cc(N3CCCCS3(=O)=O)c2)c1 [Example 25, N-[(1S,2R)-1-(3,5-difluoro-benzyl)-2-hydroxy-3-(3-methoxy-benzylamino)-propyl]-3-(1,1-dioxo-1λ^6-[1,2]thiazinan-2-yl)-5-{1-[(E)-benzyloxyimino]-ethyl}-benzamide TFA salt] | < 100 nM
15 | C=CCO/N=C(\C)c1cc(C(=O)N[C@@H](Cc2cc(F)cc(F)c2)[C@H](O)CNCc2cccc(OC)c2)cc(N2CCCCS2(=O)=O)c1 [Example 28, N-[(1S,2R)-1-(3,5-difluoro-benzyl)-2-hydroxy-3-(3-methoxy-benzylamino)-propyl]-3-(1,1-dioxo-1λ^6-[1,2]thiazinan-2-yl)-5-{1-[(E)-allyloxyimino]-ethyl}-benzamide TFA salt] | < 100 nM
16 | CO/N=C(\C)c1cc(C(=O)N[C@@H](Cc2cc(F)cc(F)c2)[C@H](O)CNCc2cccc(OC)c2)cc(S(C)(=O)=O)c1 [Example 17, N-((2S,3R)-4-(3-methoxybenzylamino)-1-(3,5-difluorophenyl)-3-hydroxybutan-2-yl)-3-((E)-1-(methoxyimino)ethyl)-5-(methylsulfonyl)benzamide TFA salt] | 100 to 1000 nM
17 | COc1cccc(CNC[C@@H](O)[C@H](Cc2cc(F)cc(F)c2)NC(=O)c2cc(C(=O)NC(C)c3ccc(F)cc3)cc(C(C)O)c2)c1 (stereo partly drawn) [Example 48, N^1-((2S,3R)-4-(3-methoxybenzylamino)-1-(3,5-difluorophenyl)-3-hydroxybutan-2-yl)-N^3-(1-(4-fluorophenyl)ethyl)-5-(1-hydroxyethyl)isophthal-amide TFA salt] | < 100 nM
18 | CCCN(CCC)C(=O)c1cc(C(C)=O)cc(C(=O)N[C@@H](Cc2cc(F)cc(F)c2)[C@H](O)CNCc2cccc(OC)c2)c1 [Example 1, N^1-((2S,3R)-4-(3-methoxybenzylamino)-1-(3,5-difluorophenyl)-3-hydroxybutan-2-yl)-5-acetyl-N^3,N^3-dipropylisophthalamide TFA salt] | < 100 nM
